Measurements from ChEMBL document CHEMBL6153137, “Design, Synthesis, and Biological Evaluation of Novel Orally Available Covalent CDK12/13 Dual Inhibitors for the Treatment of Tumors” (J Med Chem, 2025).
≈ marks a conversion by molar mass, not a printed value. Calls of active or inactive are those of the source. The rule behind the calls is not given here.

Tests used:
[1] = Toxicity against male Sprague-Dawley rat assessed as effect on mean corpuscular volume at 10 to 40 mg/kg, po administered once daily via gavage for 28 days and measured on day 29; format: organism-based; conditions: in vivo, 696 h, dose 10-40 mg/kg, time 29 day
[2] = target: Cyclin-dependent kinase 7 (Homo sapiens) (UniProt P50613); test: Inhibition of CDK7 (unknown origin) at 5 uM by DiscoverX KinomeScan ScanMAX analysis
Mus musculus = test: In vivo inhibition of CDK12/13 in Balb/c mouse xenografted with human SUM149PT cells assessed as reduction in phosphorylation of Ser2 on RNA Pol II at 15 to 30 mg/kg, po administered once daily via gavage and measured at 4 hrs post-last drug dosage by western blot analysis; format: functional, organism-based; conditions: dose 15-30 mg/kg
[3] = Half life in female Sprague-Dawley rat at 7.5 mg/kg, po administered once daily via gavage for 28 days; format: ADME, organism-based; conditions: in vivo, time 28 day
[4] = target: Cyclin-dependent kinase 2/cyclin E1 (Homo sapiens) (UniProt P24864+P24941); test: Inhibition of human recombinant N-terminal GST-tagged CDK2/N-terminal GST-tagged Cyclin E1 expressed in HEP Sf9 cells using ATP as substrate at 2 uM measured after 60 mins by ADP-Glo reagent based luminescence analysis
[5] = Toxicity against female Sprague-Dawley rat assessed as effect on blood urea nitrogen level at 7.5 to 30 mg/kg, po administered once daily via gavage for 28 days and measured on day 29; format: organism-based; conditions: in vivo, 696 h, dose 7.5-30 mg/kg, time 29 day
[6] = Toxicity against male Sprague-Dawley rat assessed as decrease in thymus volume at 10 to 40 mg/kg, po administered once daily via gavage for 28 days and measured on day 29; format: organism-based; conditions: in vivo, 696 h, dose 10-40 mg/kg, time 29 day
[7] = Toxicity against female Sprague-Dawley rat assessed as effect on mean corpuscular volume at 7.5 to 30 mg/kg, po administered once daily via gavage for 28 days and measured on day 29; format: organism-based; conditions: in vivo, 696 h, dose 7.5-30 mg/kg, time 29 day
[8] = GSH reactivity assessed as half life to adduct formation at 1 uM by LC-MS/MS analysis; format: physicochemical
[9] = target: Cyclin-dependent kinase 7 (Homo sapiens) (UniProt P50613); test: Inhibition of CDK7 in human SUM149PT cells assessed as reduction in level of phosphorylation of Ser5 on RNA Pol II CTD at 500 nM incubated for 12 hrs followed by drug wash-out and measured after 72 hrs by western blot analysis; format: cell-based
[10] = target: Cyclin-dependent kinase 12/13 (Homo sapiens) (UniProt Q14004+Q9NYV4); test: Inhibition of CDK12/13 in human SUM149PT cells assessed as reduction in level of phosphorylation of Ser2 on RNA Pol II CTD at 250 to 1000 nM by western blot analysis; format: cell-based; conditions: dose 250-1000 nM, time lower 1.0 hrs, time upper […]
SW-403 = test: Antiproliferative activity against human SW403 cells assessed as reduction in cell viability incubated for 7 days by CellTiter-Glo reagent based luminescence analysis; format: functional; conditions: SW-403, 168 h
[11] = Half life in male Sprague-Dawley rat at 20 mg/kg, po administered once daily via gavage for 28 days; format: ADME, organism-based; conditions: in vivo, time 28 day
[12] = Cmax in female Sprague-Dawley rat at 30 mg/kg, po administered via gavage and measured on day 1; format: ADME, organism-based; conditions: in vivo, time 1 day
DLD-1 = test: Antiproliferative activity against human DLD-1 cells assessed as reduction in cell viability incubated for 7 days by CellTiter-Glo reagent based luminescence analysis; format: functional; conditions: DLD-1, 168 h
[13] = AUC(0 to t) in female Sprague-Dawley rat at 15 mg/kg, po administered via gavage and measured on day 1; format: ADME, organism-based; conditions: in vivo, 24 h, time 1 day
[14] = Half life in female Sprague-Dawley rat at 30 mg/kg, po administered once daily via gavage for 28 days; format: ADME, organism-based; conditions: in vivo, time 28 day
[15] = target: CDK7/Cyclin H/MNAT1 (Homo sapiens) (UniProt P51946+P50613+P51948); test: Inhibition of human recombinant N-terminal 6X His-tagged CDK7/CCNH/N-terminal 6X His-tagged MNAT1 expressed in HEP Sf9 cells using ATP as substrate at 2 uM measured after 60 mins by ADP-Glo reagent based luminescence assay
[16] = Half life in Sprague-Dawley rat at 50 mg/kg, po measured for 24 hrs by LC-MS/MS analysis; format: ADME, organism-based; conditions: in vivo
SUM149PT = test: Induction of DNA damage in human SUM149PT cells assessed as increase in gammaH2AX phosphorylation at 250 to 1000 nM incubated for 1 to 24 hrs by western blot analysis; format: functional, cell-based; conditions: dose 250-1000 nM, time lower 1.0 hrs, time upper […]
[17] = Cmax in male Sprague-Dawley rat at 40 mg/kg, po administered via gavage and measured on day 1; format: ADME, organism-based; conditions: in vivo, time 1 day
[18] = AUC(0 to t) in male Sprague-Dawley rat at 20 mg/kg, po administered via gavage and measured on day 1; format: ADME, organism-based; conditions: in vivo, 24 h, time 1 day
[19] = Toxicity against male Sprague-Dawley rat assessed as hypersalivation at 40 mg/kg, po administered once daily via gavage for 28 days; format: organism-based; conditions: in vivo, 672 h, time 28 day
[20] = Toxicity against male Sprague-Dawley rat assessed as soft feces at 40 mg/kg, po administered once daily via gavage for 28 days; format: organism-based; conditions: in vivo, 672 h, time 28 day
[21] = Protein binding in mouse plasma assessed as free fraction at 400 uM incubated for 4 hrs by equilibrium dialysis method based LC-MS/MS analysis; format: ADME, cell-free
[22] = Half-life in Balb/c mouse xenografted with human MV4-11 cells at 15 mg/kg, po administered once daily via gavage; format: ADME, organism-based; conditions: in vivo
[23] = Toxicity against Balb/c mouse xenografted with human SUM149PT cells assessed as body weight at 30 to 60 mg/kg, po administered once daily via gavage and measured every 3 days for 3 weeks; format: organism-based; conditions: in vivo, 504 h, dose 30-60 mg/kg
Ramos = test: Antiproliferative activity against human Ramos cells assessed as reduction in cell viability incubated for 7 days by CellTiter-Glo reagent based luminescence analysis; format: functional; conditions: 168 h
[24] = Toxicity against Balb/c mouse xenografted with human MV4-11 cells assessed as effect on body weight at 15 to 30 mg/kg, po administered once daily via gavage and measured every 3 days for 3 weeks; format: organism-based; conditions: in vivo, 504 h, dose 15-30 mg/kg
[25] = Kinetic solubility of the compound in phosphate buffer at pH 7.4 measured after 24 hrs by HPLC-UV analysis; format: physicochemical; conditions: read-out: Kinetic_solubility
[26] = Toxicity against female Sprague-Dawley rat assessed as effect on body weight at 7.5 to 15 mg/kg, po administered once daily via gavage for 28 days and measured twice a week; format: organism-based; conditions: in vivo, 672 h, dose 7.5-15 mg/kg, time 28 day
[27] = AUC (0 to infinity) in Sprague-Dawley rat at 15 mg/kg, po by LC-MS/MS analysis; format: ADME, organism-based; conditions: in vivo
[28] = Cmax in Balb/c mouse xenografted with human SUM149PT cells at 60 mg/kg, po administered once daily via gavage; format: ADME, organism-based; conditions: in vivo
HCC1395 = test: Antiproliferative activity against human HCC1395 cells assessed as reduction in cell viability incubated for 7 days by CellTiter-Glo reagent based luminescence analysis; format: functional; conditions: HCC1395, 168 h

Cyclin-dependent kinase 7 (Homo sapiens), sequence (P50613 whole entry): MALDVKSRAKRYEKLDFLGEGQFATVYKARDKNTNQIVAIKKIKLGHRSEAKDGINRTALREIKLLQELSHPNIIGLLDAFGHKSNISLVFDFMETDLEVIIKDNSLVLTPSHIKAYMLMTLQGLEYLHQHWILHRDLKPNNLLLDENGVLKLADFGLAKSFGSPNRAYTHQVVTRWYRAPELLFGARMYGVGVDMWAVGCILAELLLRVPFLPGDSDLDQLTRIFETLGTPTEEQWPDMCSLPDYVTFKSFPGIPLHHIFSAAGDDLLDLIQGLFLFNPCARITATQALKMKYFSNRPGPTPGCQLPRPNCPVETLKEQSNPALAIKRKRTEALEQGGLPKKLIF

- inhibition [2]: Active
- half-life [3]: 2 h
- inhibition [4]: 63%
- t1/2 [8]: 1.35 h
- inhibition [9]: inactive
- inhibition [10]: Time-dependent-effect
- IC50 (SW-403): 135 nM
- half-life [11]: 4.2 h
- Cmax [12]: 2200 ng/mL
- IC50 (DLD-1): 135 nM
- AUCt [13]: 3000 ng·h/mL
- half-life [14]: 4.5 h
- inhibition [15]: 94%
- half-life [16]: 6.79 h
- Cmax [17]: 1660 ng/mL
- AUCt [18]: 2550 ng·h/mL
- fraction unbound at 4 h, 400 µM [21]: 0.075
- half-life [22]: 4.09 h
- IC50 (Ramos): 101 nM
- solubility kinetic at 24 h [25]: 59.4 µg/mL (≈ 143 µM)
- AUC(0-inf) [27]: 2280 ng·h/mL
- Cmax [28]: 3300 ng/mL
- IC50 (HCC1395): 69 nM
SMILES: C=CC(=O)N1CCc2c(ncnc2N2CC[C@@H](Nc3ncc(Cl)c(OC)n3)C2)C1
- Activity [1]: Non-toxic
- inhibition (Mus musculus): Active
- Activity [5]: Non-toxic
- Activity [6]: Toxic
- Activity [7]: Non-toxic
- Activity (SUM149PT): Active
- Activity [19]: Toxic
- Activity [20]: Toxic
- Activity [23]: Non-toxic
- Activity [24]: Non-toxic
- Activity [26]: Non-toxic
